From ChEMBL document CHEMBL1140971, “Synthesis of new 4-pyrrol-1-yl benzoic acid hydrazide analogs and some derived oxadiazole, triazole and pyrrole ring systems: a novel class of potential antibacterial and antitubercular agents” (2008)
In brackets after ≈: the same amount, converted by molar mass.

Experiments:
Type in all cases: functional
[1] = test system: Mycobacterium tuberculosis; assay: Antitubercular activity against Mycobacterium tuberculosis H37Rv after 21 days by broth dilution assay; conditions: 504 h
[2] = test system: Staphylococcus aureus; assay: Antibacterial activity against Staphylococcus aureus ATCC 11632 after 18 hrs by broth microdilution method; conditions: ATCC 11632, 18 h
[3] = test system: Enterococcus faecalis; assay: Antibacterial activity against Streptococcus faecalis ATCC 14506 after 18 hrs by broth microdilution method; conditions: ATCC 14506, 18 h
[4] = test system: Bacillus subtilis; assay: Antibacterial activity against Bacillus subtilis ATCC 60511 after 18 hrs by broth microdilution method; conditions: ATCC 60511, 18 h
[5] = test system: Klebsiella pneumoniae; assay: Antibacterial activity against Klebsiella pneumoniae ATCC 10031 after 18 hrs by broth microdilution method; conditions: ATCC 10031, 18 h
[6] = test system: Escherichia coli; assay: Antibacterial activity against Escherichia coli ATCC 10536 after 18 hrs by broth microdilution method; conditions: ATCC 10536, 18 h
[7] = test system: Pseudomonas aeruginosa; assay: Antibacterial activity against Pseudomonas aeruginosa ATCC 10145 after 18 hrs by broth microdilution method; conditions: ATCC 10145, 18 h

Structure (SMILES) | MIC [1] | MIC [2] | MIC [3] | MIC [4] | MIC [5] | MIC [6] | MIC [7]
CN(C)c1ccc(/C=N/NC(=O)c2ccc(-n3cccc3)cc2)cc1 | 62.5 µg/mL (≈ 188 µM) | 250 µg/mL (≈ 752 µM) | 125 µg/mL (≈ 376 µM) | 125 µg/mL (≈ 376 µM) | 125 µg/mL (≈ 376 µM) | 250 µg/mL (≈ 752 µM) | 125 µg/mL (≈ 376 µM)
CC(=O)N1N=C(c2ccc(-n3cccc3)cc2)OC1c1c(Cl)cccc1Cl (stereo not drawn) | 31.2 µg/mL (≈ 78.1 µM) | 62.5 µg/mL (≈ 156 µM) | 62.5 µg/mL (≈ 156 µM) | 31.2 µg/mL (≈ 78.1 µM) | 62.5 µg/mL (≈ 156 µM) | 62.5 µg/mL (≈ 156 µM) | 31.2 µg/mL (≈ 78.1 µM)
NNC(=O)c1ccc(-n2cccc2)cc1 | 125 µg/mL (≈ 621 µM) | 250 µg/mL (≈ 1240 µM) | 31.2 µg/mL (≈ 155 µM) | 8 µg/mL (≈ 39.8 µM) | 125 µg/mL (≈ 621 µM) | 125 µg/mL (≈ 621 µM) | 62.5 µg/mL (≈ 311 µM)
O=C(N/N=C/c1c(Cl)cccc1Cl)c1ccc(-n2cccc2)cc1 | 31.2 µg/mL (≈ 87.2 µM) | 125 µg/mL (≈ 349 µM) | 125 µg/mL (≈ 349 µM) | 62.5 µg/mL (≈ 174 µM) | 125 µg/mL (≈ 349 µM) | 62.5 µg/mL (≈ 174 µM) | 62.5 µg/mL (≈ 174 µM)
CC(=O)NNC(=O)c1ccc(-n2cccc2)cc1 | 62.5 µg/mL (≈ 257 µM) | 500 µg/mL (≈ 2060 µM) | 250 µg/mL (≈ 1030 µM) | 62.5 µg/mL (≈ 257 µM) | 125 µg/mL (≈ 514 µM) | 500 µg/mL (≈ 2060 µM) | 62.5 µg/mL (≈ 257 µM)
Nn1c(-c2ccc(-n3cccc3)cc2)n[nH]c1=S | 62.5 µg/mL (≈ 243 µM) | 500 µg/mL (≈ 1940 µM) | 250 µg/mL (≈ 972 µM) | 125 µg/mL (≈ 486 µM) | 125 µg/mL (≈ 486 µM) | 500 µg/mL (≈ 1940 µM) | 125 µg/mL (≈ 486 µM)
NNC(=O)c1ccncc1 [ISONIAZID] | 0.25 µg/mL (≈ 1.82 µM) |  |  |  |  |  | 
CC(C)=NNC(=O)c1ccc(-n2cccc2)cc1 | 62.5 µg/mL (≈ 259 µM) | 250 µg/mL (≈ 1040 µM) | 125 µg/mL (≈ 518 µM) | 62.5 µg/mL (≈ 259 µM) | 250 µg/mL (≈ 1040 µM) | 125 µg/mL (≈ 518 µM) | 62.5 µg/mL (≈ 259 µM)
O=C(N/N=C/c1ccccc1)c1ccc(-n2cccc2)cc1 | 125 µg/mL (≈ 432 µM) | 250 µg/mL (≈ 864 µM) | 250 µg/mL (≈ 864 µM) | 125 µg/mL (≈ 432 µM) | 125 µg/mL (≈ 432 µM) | 125 µg/mL (≈ 432 µM) | 125 µg/mL (≈ 432 µM)
O=C(O)c1cn(C2CC2)c2cc(N3CCNCC3)c(F)cc2c1=O [CIPROFLOXACIN] |  | < 5 µg/mL | < 5 µg/mL | ≤ 1 µg/mL | ≤ 1 µg/mL | ≤ 1 µg/mL | > 5 µg/mL
O=C(NN=C(c1ccccc1)c1ccccc1)c1ccc(-n2cccc2)cc1 | 62.5 µg/mL (≈ 171 µM) | 500 µg/mL (≈ 1370 µM) | 250 µg/mL (≈ 684 µM) | 62.5 µg/mL (≈ 171 µM) | 125 µg/mL (≈ 342 µM) | 125 µg/mL (≈ 342 µM) | 62.5 µg/mL (≈ 171 µM)
O=C(N/N=C/c1cccc([N+](=O)[O-])c1)c1ccc(-n2cccc2)cc1 | 62.5 µg/mL (≈ 187 µM) | 500 µg/mL (≈ 1500 µM) | 500 µg/mL (≈ 1500 µM) | 250 µg/mL (≈ 748 µM) | 500 µg/mL (≈ 1500 µM) | 500 µg/mL (≈ 1500 µM) | 62.5 µg/mL (≈ 187 µM)
C/C(=N\NC(=O)c1ccc(-n2cccc2)cc1)c1ccccc1 | 62.5 µg/mL (≈ 206 µM) | 250 µg/mL (≈ 824 µM) | 125 µg/mL (≈ 412 µM) | 62.5 µg/mL (≈ 206 µM) | 125 µg/mL (≈ 412 µM) | 125 µg/mL (≈ 412 µM) | 62.5 µg/mL (≈ 206 µM)
O=C(N/N=C/c1ccc(O)cc1)c1ccc(-n2cccc2)cc1 | 31.2 µg/mL (≈ 102 µM) | 125 µg/mL (≈ 409 µM) | 125 µg/mL (≈ 409 µM) | 62.5 µg/mL (≈ 205 µM) | 125 µg/mL (≈ 409 µM) | 62.5 µg/mL (≈ 205 µM) | 62.5 µg/mL (≈ 205 µM)
Sc1nnc(-c2ccc(-n3cccc3)cc2)o1 | 16 µg/mL (≈ 65.8 µM) | 250 µg/mL (≈ 1030 µM) | 31.2 µg/mL (≈ 128 µM) | 8 µg/mL (≈ 32.9 µM) | 125 µg/mL (≈ 514 µM) | 31.2 µg/mL (≈ 128 µM) | 31.2 µg/mL (≈ 128 µM)
CCn1cc(C(=O)O)c(=O)c2cc(F)c(N3CCNCC3)cc21 [NORFLOXACIN] |  | < 5 µg/mL | < 5 µg/mL | ≤ 1 µg/mL | ≤ 1 µg/mL | ≤ 1 µg/mL | > 5 µg/mL
CC(=O)N1N=C(c2ccc(-n3cccc3)cc2)OC1c1ccccc1 (stereo not drawn) | 31.2 µg/mL (≈ 94.3 µM) | 250 µg/mL (≈ 754 µM) | 125 µg/mL (≈ 377 µM) | 62.5 µg/mL (≈ 189 µM) | 62.5 µg/mL (≈ 189 µM) | 125 µg/mL (≈ 377 µM) | 62.5 µg/mL (≈ 189 µM)
Cc1ccc(C)n1NC(=O)c1ccc(-n2cccc2)cc1 | 31.2 µg/mL (≈ 112 µM) | 250 µg/mL (≈ 895 µM) | 125 µg/mL (≈ 447 µM) | 62.5 µg/mL (≈ 224 µM) | 250 µg/mL (≈ 895 µM) | 125 µg/mL (≈ 447 µM) | 62.5 µg/mL (≈ 224 µM)
